d = 2'-deoxy (DNA); r = 2'-OH (RNA)
Experiments:
Assay type in all cases: cell-based, human
LNCaP-Mock cells = assay: Crystal violet cell growth assay, LNCaP-Mock cells
Protocol: (§1) In brief, cells were seeded in each well of 12-well microtiter plates (30 000 to 50 000 cells per well) and allowed to attach overnight. To study the effect of TCTP downregulation on apoptosis induced by docetaxel, PC-3 cells were transiently transfected the day after seeding with 5 nM of TCTP siRNA for 48 h or 100 nM of TCTP ASO for 72 h. Cells were then treated with 50 nM of docetaxel and MTT assays were performed after 24 h. To assess the effect of TCTP downregulation on Hsp27 cytoprotection, LNCaP-Mock and -Hsp27 cells were transiently transfected the day after seeding with 5 nM of TCTP siRNA for 48 h. The down- or upregulation of TCTP effect on LNCaP and C4-2 cell viability was realized after transient transfections with 100 nM of TCTP ASO or 0.02 μg/μl of pDEST-TCTP for 72 h and 48 h respectively. Cells were then treated with 1 nM of docetaxel in serum-free media (mimics androgen withdrawal in vitro) and crystal violet assays were performed the day after. Each assay was performed in triplicate.
In order to study consequences of TCTP inhibition on cell survival after combined androgen withdrawal and docetaxel-chemotherapy treatment, cell viability of LNCaP-Mock and -Hsp27 was determined using crystal violet dye after 24 h treatment with 1 nM of docetaxel in serum-free media (mimics androgen withdrawal in vitro). […]

LNCaP-Hsp27 cells = assay: Crystal violet cell growth assay, LNCaP-Hsp27 cells
Protocol: as §1
To study the functional role of TCTP in CRPC, siRNA-induced inhibition of TCTP expression was used to determine whether the reduction of TCTP expression affects LNCaP-Mock and -Hsp27 cell growth after combined androgen withdrawal and docetaxel-chemotherapy treatment in vitro.
In order to study consequences of TCTP inhibition on cell survival after combined androgen withdrawal and docetaxel-chemotherapy treatment, cell viability of LNCaP-Mock and -Hsp27 was determined using crystal violet dye after 24 h treatment with 1 nM of docetaxel in serum-free media (mimics androgen withdrawal in vitro). […] After TCTP siRNA plus docetaxel in serum-free medium treatment (mimics androgen withdrawal in vitro), we found an 80% (**, P≤0.01) reduction in LNCaP-Hsp27 cell growth rate versus a 50% (**, P≤0.01) reduction in LNCaP-Mock compared to control.

TCTP = assay: ASO sequences screening: TCTP expression by western blot and/or qRT-PCR; conditions: WB and/or qRT-PCR, PC-3 cells overexpressing TCTP
Protocol: Western Blot analysis was performed as described previously (Rocchi et al., 2004, Cancer Res. 64:6595-602) with 1:5000 rabbit anti-Hsp27 polyclonal antibody (Assay Designs, Villeurbanne, France), 1:2000 rabbit TCTP polyclonal antibody (Abcam Inc., Cambridge, UK), 1:250 rabbit anti-MSL1v1 polyclonal antibody (Abcam Inc.), 1:500 mouse anti-ubiquitin monoclonal antibody (Santa Cruz Biotechnology Inc., Heidelberg, Germany) or 1:1000 rabbit anti-caspase-3 polyclonal antibody (Cell Signalling Technology Inc., Danvers, USA). Loading levels were normalized using 1:5000 rabbit anti-glyceraldehyde-3-phosphate dehydrogenase polyclonal (Abcam Inc.) or 1:2500 mouse anti-vinculine monoclonal antibodies (Sigma Chemical Co., St Louis, Mo., USA).
The quantitative reverse transcription polymerase chain reaction (qRT-PCR) analysis was done on a LightCycler detection system (Roche Applied Science, Meylan, France). Expression levels of 18S subunit of the ribosome gene were used as an internal control. First strand cDNA was synthesized from 1 μg of total RNA using random hexamers and expanded by reverse transcriptase according to the manufacturer's instructions (ImProm-II Reverse Transcription System, Promega, Charbonniéres-les-Bains, France), subsequently diluted 1:10 with water, and stored at −20° C. until use. TCTP and 18S polymerase chain reaction (PCR) products were detected by quantitative real time PCR (qRT-PCR) using the SYBR Premix Ex Taq (Takara Bio Inc, St Germain en Laye, France) following the manufacturer's instructions. Five microliters of diluted cDNA template were mixed with 10 μl SYBR Premix Ex Taq (including Taq polymerase, reaction buffer, MgCl2, SYBR green I dye, and deoxynucleotide triphosphate mix) and 0.4 μM forward and reverse primers, in a final volume of 20 μl. The following primers were used: TCTP forward 5′-[…]-3′ (SEQ ID NO: 8) and TCTP reverse 5′-[…]-3′; (SEQ ID NO: 9); 18S forward 5′-[…]-3′ (SEQ ID NO: 10) and 18S reverse 5′-[…]-3′ (SEQ ID NO: 11). After an initial Taq activation for 10 seconds at 95° C., Light Cycler PCR was done using 55 cycles with the following cycling conditions: 95° C. for 5 seconds, 58° C. for 7 seconds, and 72° C. for 14 seconds. Each sample was analyzed in duplicate and the experiment was repeated three times. Results were analyzed using RealQuant data analysis software (Roche, Neuilly-sur-seine, France). The results analysis was done with the 2(-Delta Delta C(T)) Method (Livak K J. et al., 2001; Methods. 25:402-8).
In order to find a sequence ASO having an inhibiting effect on TCTP expression, 30 ASO sequences have been designed 26 of which are shown in table 1. Said 30 sequences cover the TCTP mRNA (accession number NM_003295). Using BLAST program, the specificity of said sequences has been studied. Among said 30 sequences, only 15 sequences have been identified as being specific for TCPT mRNA sequence (see table 1). The effect of said ASO sequences on TCTP expression was tested by western blot analysis (WB) and/or by quantitative reverse transcription polymerase chain reaction (qRT-PCR) on PC-3 cells overexpressing TCTP. WB and qRT-PCR were performed as exposed in example 1.

C4-2 cells = assay: Crystal violet cell growth assay, C4-2 cells
Protocol: as §1
Finally, in order to assess if TCTP ASO has the same effect on prostatic cancer cell lines expressing the androgen receptor (AR), crystal violet dye was used to examin LNCaP and C4-2 cell growth. LNCaP and C4-2 were treated with 100 nM TCTP or control ASO (FIGS. 15 A and B) for 2 days. Then, LNCaP and C4-2 cells were incubated with 1 nM of docetaxel in serum-free media.

[1] = siRNA 5 nM alone, compared with control
[2] = siRNA plus 1 nM docetaxel in serum-free medium, 24 h

| Substance | reduction in LNCaP-Mock cell growth rate (LNCaP-Mock cells; [1]) | reduction in LNCaP-Mock cell growth rate (LNCaP-Mock cells; [2]) | cytoprotection to androgen withdrawal and docetaxel conferred by Hsp27 overexpression (LNCaP-Hsp27 cells; siRNA 5 nM) | reduction in LNCaP-Hsp27 cell growth rate (LNCaP-Hsp27 cells; [1]) | reduction in LNCaP-Hsp27 cell growth rate (LNCaP-Hsp27 cells; [2]) | ability to inhibit TCTP expression (TCTP) | best ability to inhibit specifically TCTP expression (TCTP) | C4-2 cell growth (C4-2 cells; 100 nM ASO for 2 days) | sensitivity to docetaxel and androgen withdrawal (C4-2 cells; C4-2, 100 nM ASO 2 days then 1 nM docetaxel in serum-free media) |
| --- | --- | --- | --- | --- | --- | --- | --- | --- | --- |
| 5′-AACCCGUCCGCGAUCUCCCdGdG-3′ (AACCCGUCCGCGAUCUCCCGG; siRNA; sugars from the 5' end r19 d2, backbone not given here) [TCTP siRNA, from Qiagen] | 40% | 50% | reversed the cytoprotection | 50% | 80% |  |  |  |  |
| 5′-ACCAATGAGCGAGTCATCAA-3′ (phosphorothioate backbone, further chemistry not given here) [ASO10] |  |  |  |  |  | strong ability to inhibit TCTP expression | best ability to inhibit specifically TCTP expression | considerably decrease | enhance treatments (docetaxel and androgen withdrawal) sensitivity |
